Series [1] is described as follows: acute oral toxicity, graphic method of Litchfield-Wilcoxon, 4 days observation. The note with it: mouse, in vivo. The method, then:
The analgesic effect of the new compounds according to the invention was determined by the method of Wirth et al. (Wirth, W., Gosswald, R., Horlein. K., Risse, Kl. H., Kreiskott, H.: Arch. Int. Pharmacodyn. 115, 1; (1958)). 0.4 ml of 0.5% acetic acid was administered i.p. to white mice, and the characteristic "writhing" reactions were counted after 5 minutes. […] The results are given in Table I. The toxicity data determined on white mice of both sexes weighing 18-24 g belonging to the strain CFLP are also given. Administration was effected with an oral dose of 20 ml/kg. After treatment the animals were kept under observation for 4 days. The toxicity data (LD50 mg/kg) were determined by the graphic method of Litchfield-Wilcoxon [Litchfield, J.T., Wilcoxon, E. W., J Pharmacol. Exp. Therap. 96, 99; (1949)].

The test system of series [2] is white mice. The experiment in a line: analgesic effect, inhibition of acetic acid "writhing" reactions (Wirth et al.). In kind it is in vivo. The note with it: for ED50: Mus musculus, oral, 1 hour before i.p. 0.4 ml 0.5% acetic acid, read-out: Analgesic effect ED50; for Analgesic effect Therap.index: therapeutic index. The method, then:
The analgesic effect of the new compounds according to the invention was determined by the method of Wirth et al. (Wirth, W., Gosswald, R., Horlein. K., Risse, Kl. H., Kreiskott, H.: Arch. Int. Pharmacodyn. 115, 1; (1958)). 0.4 ml of 0.5% acetic acid was administered i.p. to white mice, and the characteristic "writhing" reactions were counted after 5 minutes. The compounds to be tested had been orally administered an hour before the administration of the acetic acid. The activity is expressed as a percentage of the inhibition referred to the data observed on the control group. The results are given in Table I. The toxicity data determined on white mice of both sexes weighing 18-24 g belonging to the strain CFLP are also given. Administration was effected with an oral dose of 20 ml/kg. After treatment the animals were kept under observation for 4 days. The toxicity data (LD50 mg/kg) were determined by the graphic method of Litchfield-Wilcoxon [Litchfield, J.T., Wilcoxon, E. W., J Pharmacol. Exp. Therap. 96, 99; (1949)].
A general note: Writhing tests count abdominal constrictions after an irritant is injected.

Series [3] relates to white mice. The experiment in a line: inhibition of maximal electroshock (MES) (Swinyard et al.). In kind it is in vivo. Particulars: for ED50: Mus musculus, oral, 1 hour before electroshock 50 Hz, 45 mA, 0.4 sec, total inhibition of tonic extensor convulsion; for Inhibition of MES Th. I.: therapeutic index. The method, then:
(§1) The antiepileptic effect was investigated on white mice, after oral administration. The inhibition of maximal electroshock (MES) was determined by the method of Swinyard et al. [Swinyard et al. J. Pharmacol. Exp. Ther. 106, 319-330 (1952)]. White mice weighing 20-25 g were subjected to electric shock through corneal electrodes (Parameters: 50 Hz, 45 mA, 0.4 sec.). The total inhibition of the tonic extensor convulsion was considered as criterion of the anti-convulsive effect. The test-substance had been orally administered one hour before the electroshock. The inhibition of pentetrazole convulsion was determined on white mice by the modified method of Banziger and Hane [Banziger, R., Hane, L.D. Arch. Int. Pharmacodyn. 167, 245-249; (1967)]. I." stands for "therapeutic index."

The subject of series [4] is white mice. The experiment in a line: inhibition of pentetrazole convulsion (modified Banziger and Hane). The note with it: for ED50: Mus musculus, oral; for Inhibition of pentetrazole convulsion Th. I.: therapeutic index. In kind it is in vivo. The procedure: as §1
The next series relates to mice. As to the kind of experiment: potentiating of hexobarbital-narcosis (Kaergaard). The class given is in vivo. The note with it: for ED50: Mus musculus, iv, 40 mg/kg hexobarbital i.v., positive: sleeping period at least 2.5 times control; for Potentiating of narcosis Th.I.: therapeutic index. The procedure: (§2) The effect on the inhibition of the oriental activity (inhibition of the motility) was investigated on white mice in a Dews apparatus applied with 8 canals by the method of Borsy [Borsy, J., Csanyi, E., Lazar, I., Arc. Int. Pharmacodyn. 124, 1-2 (1960)]. After an oral pretreatment of 30 minutes the number of light-interruptions due to the movements of groups consisting of 3-3 mice was registered. The observation lasted for 30 minutes. The effect of the compounds exerted on the duration of hexobarbital-narcosis was tested by the method of Kaergaard [Kaergaard, N. C., Magnussen, M. P., Kampmann, E., Frey, H. H., Arc. Int. Pharmacodyn. 2, 170; (1967)]. Groups of animals consisting of 6-6 mice were treated.

The subject of series [5] is white mice. As to the kind of experiment: inhibition of motility, Dews apparatus (Borsy). The class given is in vivo. The procedure: as §2
Where [6] appears, read: oral, 20 ml/kg, both sexes 18-24 g, 4 days observation.

`CCN(CC)CCCOC1(c2ccccc2)CC2CCC1(C)C2(C)C` (racemic) [Example 16, (±)-2-(3-diethylaminopropoxy)-2-phenyl-1,7,7-trimethyl-bicyclo(2,2,1)heptane]: the median lethal dose (LD50) at 96 h in series [1] (setting [6]) was 700 mg/kg. Also, in the series on white mice [2], the ED50 worked out at 70 mg/kg and the “Analgesic effect Therap.index” value amounted to 10.0. Moreover, in the series on white mice [3], the ED50 was determined as 30 mg/kg and the “Inhibition of MES Th. I.” value came out at 23.3. Moreover, in the series on white mice [4], the 50% effect level (ED50) was put at a dose of 60 mg/kg and the “Inhibition of pentetrazole convulsion Th. I.” value was 11.7. For the same compound, in the series with mice, the 50% effective dose (ED50) is 20 mg/kg and the “Potentiating of narcosis Th.I.” value was 35.0.
Compound `CC1(C)C2CCC1(C)C(Cc1ccccc1)(OCCCN1CCN(Cc3ccccc3)CC1)C2` (racemic) [Example 4] showed an LD50 at 96 h in series [1] (setting [6]) of 2000 mg/kg. Further, in the series with white mice [2], the ED50 amounted to 200 mg/kg and the “Analgesic effect Therap.index” value is given as 10.0.
For `CN(C)CCCOC1(c2cccs2)CC2CCC1(C)C2(C)C` (racemic) [Example 18, (±)-2-(3'-dimethylaminopropoxy)-2-(2"-thienyl)-1,7,7-trimethyl-bicyclo(2,2,1)heptane], the LD50 at 96 h in series [1] (po) stood at 1400 mg/kg. In the series with white mice [2], the 50% effective dose (ED50) was found to be 140 mg/kg and the “Analgesic effect Therap.index” value was 10.0.
Regarding `CC(=O)Nc1ccc(O)cc1` [Paracetamole, N-(4-Hydroxyphenyl)-acetamide, reference compound], the ED50 in the series with white mice [2] stood at 180 mg/kg.
In the case of `CN(C)CCCOC1(c2ccccc2)CC2CCC1(C)C2(C)C` (racemic) [Example 14, (±)-2-(3'-dimethylaminopropoxy)-2-phenyl-1,7,7-trimethyl-bicyclo(2,2,1)heptane], the median lethal dose (LD50) at 96 h in series [1] (setting [6]) is 1000 mg/kg. Further, in the series on white mice [2], the ED50 is 50 mg/kg and the “Analgesic effect Therap.index” value turned out to be 20.0. Also, the ED50 with white mice [5] (Mus musculus, oral pretreatment 30 minutes, observation 30 minutes) worked out at 38 mg/kg. Further, in the series with white mice [5] (therapeutic index, motility), the “Inhibition of motility Th.I.” value was found to be 26.3. In the series on mice, the ED50 came out at 64 mg/kg and the “Potentiating of narcosis Th.I.” value is 15.6.
On to `CCN(CC)CCCOC1(c2cccs2)CC2CCC1(C)C2(C)C` (racemic) [Example 19, (±)-2-(3'-diethylaminopropoxy)-2-(2"-thienyl)-1,7,7-trimethyl-bicyclo(2,2,1)heptane], for which, in series [1] (po), the LD50 at 96 h was 1000 mg/kg. In the series with white mice [2], the ED50 was found to be 120 mg/kg and the “Analgesic effect Therap.index” value worked out at 8.3. Also, in the series on mice, the ED50 is 50 mg/kg and the “Potentiating of narcosis Th.I.” value was 20.0.
Regarding `CC(C)N(CCOC1(Cc2ccccc2)CC2CCC1(C)C2(C)C)C(C)C` (racemic) [Example 3, (±)-2-benzyl-2-(2'-diisopropylaminoethoxy)-1,7,7-trimethyl-bicyclo(2,2,1) heptane], the LD50 at 96 h in series [1] (setting [6]) is 1250 mg/kg. In addition, in the series with white mice [2], the ED50 came to 120 mg/kg and the “Analgesic effect Therap.index” value was determined as 10.4. In the series with mice, the ED50 stood at 120 mg/kg and the “Potentiating of narcosis Th.I.” value worked out at 10.4.
Take `CN1C(=O)OC(C)(C)C1=O` [Trimethadion, 3,5,5-Trimethyl-2,4-oxazolidinedione, reference compound]: in the series with white mice [3], the 50% effect level (ED50) was put at a dose of 4.9 mg/kg and the “Inhibition of MES Th. I.” value is recorded as 4.3. Further, in the series with white mice [4], the ED50 was 400 mg/kg and the “Inhibition of pentetrazole convulsion Th. I.” value came to 5.3.
As to `CCN(CC)CCOC1(Cc2ccc(Cl)cc2)CC2CCC1(C)C2(C)C` (racemic) [Example 12], the LD50 at 96 h in series [1] (setting [6]) is 2000 mg/kg. Moreover, in the series on white mice [2], the ED50 was 100 mg/kg and the “Analgesic effect Therap.index” value came to 20.0. Further, in the series on white mice [3], it took a dose of 72 mg/kg to reach the 50% effect level (ED50) and the “Inhibition of MES Th. I.” value turned out to be 27.7. In the series with white mice [4], it took a dose of 110 mg/kg to reach the 50% effect level (ED50) and the “Inhibition of pentetrazole convulsion Th. I.” value amounted to 18.2. Moreover, in the series with mice, the ED50 was found to be 200 mg/kg and the “Potentiating of narcosis Th.I.” value was 10.0.

The term LD50 denotes the dose at which mortality reaches 50%. A low value points to a more toxic substance. In general, ED50 refers to the dose at which the effect has come halfway, by size or by number of responders.

Values taken from patent publication US4342762A, “Basic ethers and pharmaceutical compositions containing the same” (Egyt Gyogyszervegyeszeti Gyar, priority 1979, dated 1982).
